US20260242563A1, “DEGRADABLE CROSSLINKING AGENT” (NAGASE CHEMTEX CORPORATION, priority 2023, published 2026)

Assay: Adding a small amount of 12% sodium hypochlorite aqueous solution to the cross-linking agent compound
Type: physicochemical
Conditions: small amount of 12% sodium hypochlorite aqueous solution added to the compound
For `C=C(C)C(=O)NNC(=O)OCCOCCOCCOC(=O)NNC(=O)C(=C)C` [Formula (A1)], the “degradation product generated (confirmed by 1H-NMR)” value (from here on “degradation product generated”) was “triethylene glycol” and the “observation upon adding oxidizing agent” value was “foaming occurred”. For `C=CCOC(=O)NNC(=O)OCCCCCCOC(=O)NNC(=O)OCC=C` [Formula (A3)], the “degradation product generated” value was 1,6-hexanediol and the “observation upon adding oxidizing agent” value was “foaming occurred”. In the case of `NNC(=O)CCC(NC(=O)NNC(=O)c1cc(C(=O)NNC(=O)NC(=O)NC(CCC(=O)NN)C(=O)NN)cc(S(=O)(=O)[O-])c1)C(=O)NN.[Na+]` (centres unmarked) [Formula (A6)], the “degradation product generated” value is reported as “sodium 5-sulfoisophthalate” and the “observation upon adding oxidizing agent” value is reported as “foaming occurred”. In the case of `C=CCOC(=O)NNC(=O)CCC(NC(=O)NNC(=O)c1cc(C(=O)NNC(=O)NC(CCC(=O)NNC(=O)OCC=C)C(=O)NNC(=O)OCC=C)cc(S(=O)(=O)[O-])c1)C(=O)NNC(=O)OCC=C.[Na+]` (centres unmarked) [Formula (A7)], the “degradation product generated” value is reported as “sodium 5-sulfoisophthalate and glutamic acid” and the “observation upon adding oxidizing agent” value is reported as “foaming occurred”. For `C=CCOC(=O)NNC(=O)CCC(NC(=O)NNC(=O)CCC(=O)NNC(=O)NC(CCC(=O)NNC(=O)OCC=C)C(=O)NNC(=O)OCC=C)C(=O)NNC(=O)OCC=C` (centres unmarked) [Formula (A8)], the “degradation product generated” value was “succinic acid and glutamic acid” and the “observation upon adding oxidizing agent” value was “foaming occurred”. With `C=C(C)C(=O)NNC(=O)c1ccc(OCC(O)COc2ccc(C(C)(C)c3ccc(OCC(O)COc4ccc(C(=O)NNC(=O)C(=C)C)cc4)cc3)cc2)cc1` (centres unmarked) [Formula (B), reference compound] the “degradation product generated” value was “compound of formula (C)” and the “observation upon adding oxidizing agent” value was “foaming occurred”.

Assay: Water solubility of degradation products in ion exchange water at 20° C.
Conditions: 0.3 g in 10 mL of ion exchange water
With `CC(C)(c1ccc(OCC(O)COc2ccc(C(=O)O)cc2)cc1)c1ccc(OCC(O)COc2ccc(C(=O)O)cc2)cc1` (centres unmarked) [Formula (C)] the water solubility was “insoluble”. For `O=C(O)c1cc(C(=O)O)cc(C(=O)O)c1` [trimesic acid], the water solubility was “insoluble”.

Same assay, conditions: 0.5 g in 10 mL of ion exchange water
In the case of `O=C(O)CCCCCO` [6-hydroxyhexanoic acid], the water solubility is reported as “soluble”.

Same assay, conditions: 2 g in 10 mL of ion exchange water
In the case of `OCCOCCOCCO` [triethylene glycol], the water solubility is reported as “soluble”.

Same assay, conditions: one gram in 10 mL of ion exchange water
For `OCCCCCCO` [1,6-hexanediol], the water solubility was “soluble”. For `O=C(O)c1cc(C(=O)O)cc(S(=O)(=O)O)c1` [5-sulfoisophthalic acid], the water solubility was “soluble”. In the case of `NCCCCCCN` [hexamethylenediamine], the water solubility is reported as “soluble”. For `OCCOCCOCCO` [triethylene glycol], the water solubility was “soluble”.
